According to patent US11390609B2, “Rho-associated protein kinase inhibitor, pharmaceutical composition comprising same, and preparation method and use thereof” (BEIJING TIDE PHARMACEUTICAL CO., LTD., priority 2017, dated 2022):

Target: ROCK2 (Homo sapiens, UniProt O75116)
Assay: ROCK2 kinase IC50 assay (CISBIO HTRF KinEASE-STK S2 kit)
Type: biochemical
Conditions: incubated at room temperature for 2 hours
Method: The kinase IC50 was determined by a commercialized CISBIO kinase detection kit, HTRF KinEASE-STK S2 kit (62ST2PEC). ROCK2 (01-119) employed in the reaction was purchased from Carna Biosciences.
Before the assay, the following working solutions as needed were formulated with corresponding reagents according to the instruction of the kinase detection kit: 1×kinase buffer, 5×STK-52 substrate working solution (1.5 μM) and 5×ATP working solution (1.5 μM), 5×ROCK2 kinase working solution, 4×Streptavidin-XL665 working solution, and 4×STK-Ab-Cryptate 2 detection solution. Then the assay was performed according to the following procedure.
A solution of a compound at a concentration of 10000 nM was prepared with the 1×kinase buffer containing 2.5% DMSO. Gradient dilution of the solution of the compound was performed with the kinase buffer containing DMSO, so as to obtain solutions of a test compound at 9 different concentrations. In addition to wells of test compounds, a positive well (containing all the reagents except the compound) and a negative well (containing all the reagents except the test compound and kinase) were set. Except for the control wells (positive and negative wells), a solution of a test compound (4 μL) was added to each of the reaction wells, and a solution of 2.5% DMSO was added to the control wells. Then the substrate ([…], 2 μL. 5×STK-S2 substrate working solution) was added to each of the reaction wells. The 5×ROCK2 kinase working solution (2 μL, containing 1.4 ng ROCK2 kinase) was added to each of the reaction wells except for the negative well, the volume of which was made up with the 1×kinase buffer (2 μL). The 5×ATP working solution (2 μL) was added to each of the reaction wells, and the mixtures were incubated at room temperature for 2 hours. After the kinase reaction was complete, the 4×Streptavidin-XL665 working solution was added to each of the reaction wells, the solutions were mixed, followed by immediate addition of the 4×STK-Ab-Cryptate 2 detection solution (5 μL), and the mixtures were incubated at room temperature for 1 hour. The fluorescence signal was read on ENVISION (Perkinelmer) (excitation wavelength: 320 nm, and emission wavelength: 665 nm and 615 nm). The inhibitory rate in each well was calculated based on the fluorescence intensity value: ER (Emission Ratio)=(fluorescence intensity at 665 nm/fluorescence intensity at 615 nm); inhibitory rate=(ERpositive−ERtest compound)/(ERpositive−ERnegative)*100%. Curves were plotted and fitted to obtain the median inhibitory concentration (IC50) of each teat compound with the PRISM 5.0 software.

SMILES | IC50
COc1cc(Nc2ccc3[nH]ncc3c2)nc(-c2ccc3cc(C(=O)Nc4ccnnc4)[nH]c3c2)n1 [TDI01801, 6-(4-((1H-indazol-5-yl)amino)-6-methoxy-pyrimidin-2-yl)-N-(pyridazin-4-yl)-1H-indole-2-carboxamide] | 68 nM
Cn1c(C(=O)N2CC(F)(F)C2)cc2ccc(-c3ncc(C(F)(F)F)c(Nc4ccc(-c5cn[nH]c5)cc4)n3)cc21 [TDI01681, (6-(4-((4-(1H-pyrazol-4-yl)phenyl)amino)-5-(trifluoromethyl)pyrimidin-2-yl)-1-methyl-1H-indol-2-yl)(3,3-difluoroazetidin-1-yl)methanone] | 238 nM
Cc1cc2ccc(-c3nccc(Nc4ccc5[nH]ncc5c4)n3)cc2[nH]1 [TDI01901, N-(2-(2-methyl-1H-indol-6-yl)pyrimidin-4-yl)-1H-indazol-5-amine] | 387 nM
Cn1c(C(=O)N2C[C@@H](F)[C@H](Br)C2)cc2ccc(-c3nccc(Nc4ccc(-c5cn[nH]c5)cc4)n3)cc21 [TDI01519, (6-(4-((4-(1H-py razol-4-yl)phenyl)amino)pyrimidin-2-yl)-1-methyl-1H-indol-2-yl)((3R,4R)-3-bromo-4-fluoropyrrolidin-1-yl)methanone] | 102 nM
CC(C)(C)OC(=O)n1ncc2cc(NC(=O)c3cc4ccc(-c5nccc(Nc6ccc7[nH]ncc7c6)n5)cc4[nH]3)ccc21 [TDI01248, tert-butyl 5-(6-(4-((1H-indazol-5-yl)amino)-pyrimidin-2-yl)-1H-indole-2-carboxamido)-1H-indazole-1-carboxylate] | 500 nM
Cn1c(-n2ccnc2)cc2ccc(-c3nccc(Nc4ccc(-c5cn[nH]c5)c(F)c4)n3)cc21 [TDI01684, 2-(2-(1H-imidazol-1-yl)-1-methyl-1H-indol-6-yl)-N-(3-fluoro-4-(1H-pyrazol-4-yl)phenyl)pyrimidin-4-amine] | 171 nM
CN(C)C(=O)c1cc2ccc(-c3nccc(Nc4ccc5[nH]ncc5c4)n3)cc2[nH]1 [TDI01353, 6-(4-((1H-indazol-5-yl)amino)-pyrimidin-2-yl)-N,N-dimethyl-1H-indole-2-carboxamide] | 307 nM
CN(C)C(=O)c1cc2ccc(-c3nc(Nc4ccc5[nH]ncc5c4)c4sccc4n3)cc2[nH]1 [TDI01406, 6-(4-((1H-indazol-5-yl)amino)-thieno[3,2-d]pyrimidin-2-yl)-N,N-dimethyl-1H-indole-2-carboxamide] | 285 nM
O=C(C1CC(F)(F)C1)N1CCc2ccc(-c3nccc(Nc4ccc5[nH]ncc5c4)n3)cc2C1 [TDI01682, (7-(4-((1H-indazol-5-yl)amino)pyrimidin-2-yl)-3,4-dihydroisoquinolin-2(1H)-yl)(3,3-difluorocyclobutyl)methanone] | 360 nM
O=C(NC1CCCC(N2CCOCC2)C1)c1cc2ccc(-c3nccc(Nc4ccc(-c5cn[nH]c5)cc4)n3)cc2[nH]1 (stereo not shown) [TDI01878, 6-(4-((4-(1H-pyrazol-4-yl)phenyl)-amino)-pyrimidin-2-yl)-N-(3-morpholino-cyclohexyl)-1H-indole-2-carboxamide] | 9 nM
COC(=O)C(Cc1c[nH]cn1)NC(=O)c1cc2ccc(-c3nccc(Nc4ccc5[nH]ncc5c4)n3)cc2[nH]1 (stereo not shown) [TDI01385, methyl (6-(4-((1H-indazol-5-yl)amino)-pyrimidin-2-yl)-1H-indole-2-carbonyl)-histidinate] | 107 nM
O=C(NC1CCN(c2ccncc2)CC1)c1cc2ccc(-c3nccc(Nc4ccc5[nH]ncc5c4)n3)cc2[nH]1 [TDI01814, 6-(4-((1H-indazol-5-yl)amino)-pyrimidin-2-yl)-N-(1-(pyridin-4-yl)piperidin-4-yl)-1H-indole-2-carboxamide] | 18 nM
CC(C)NC(=O)c1cc2ccc(-c3nc(Nc4ccc(-c5cn[nH]c5)cc4)cc(OCCN(C)C)n3)cc2[nH]1 [TDI01865, 6-(4-((4-(1H-pyrazol-4-yl)phenyl)amino)-6-(2-(dimethylami-no)ethoxy)pyrimidin-2-yl)-N-isopropyl-1H-indole-2-carboxamide] | 400 nM

Next, values leading:

IC50 | SMILES
402 nM | O=C(c1cc2ccc(-c3nccc(Nc4ccc(-c5cn[nH]c5)cc4)n3)cc2[nH]1)N1CC[C@H](O)C1 [TDI01438, (S)-(6-(4-((4-(1H-pyrazol-4-yl)phenyl)amino)pyrimidin-2-yl)-1H-indol-2-yl)(3-hydroxypyrrolidin-1-yl)methanone]
132 nM | C[C@@H](NC(=O)c1cc2ccc(-c3nccc(Nc4ccc5[nH]ncc5c4)n3)cc2[nH]1)c1ccncc1 [TDI01849, (R)-6-(4-((1H-indazol-5-yl)amino)-pyrimpidin-2-yl)-N-(1-(pyridin-4-yl)ethyl)-1H-indole-2-carboxamide]

Target: ROCK1 (Homo sapiens (Human), UniProt Q13464)
Assay: ROCK1 kinase IC50 assay (biological test method similar to the ROCK2 assay)
Type: biochemical
Conditions: not given
In short: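 HTRF KinEASE-STK S2 assay with the STK-S2 biotinylated substrate and ATP, at 5× working solutions of 1.5 µM each. Kinase reaction with 9-point compound dilutions ran 2 h at room temperature, followed by 1 h streptavidin-XL665/Cryptate detection. The 665/615 nm ratio was normalised to no-compound and no-kinase wells, and IC50 was obtained by curve fitting.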

Sequence of ROCK1 (Q13464 whole entry, species assumed): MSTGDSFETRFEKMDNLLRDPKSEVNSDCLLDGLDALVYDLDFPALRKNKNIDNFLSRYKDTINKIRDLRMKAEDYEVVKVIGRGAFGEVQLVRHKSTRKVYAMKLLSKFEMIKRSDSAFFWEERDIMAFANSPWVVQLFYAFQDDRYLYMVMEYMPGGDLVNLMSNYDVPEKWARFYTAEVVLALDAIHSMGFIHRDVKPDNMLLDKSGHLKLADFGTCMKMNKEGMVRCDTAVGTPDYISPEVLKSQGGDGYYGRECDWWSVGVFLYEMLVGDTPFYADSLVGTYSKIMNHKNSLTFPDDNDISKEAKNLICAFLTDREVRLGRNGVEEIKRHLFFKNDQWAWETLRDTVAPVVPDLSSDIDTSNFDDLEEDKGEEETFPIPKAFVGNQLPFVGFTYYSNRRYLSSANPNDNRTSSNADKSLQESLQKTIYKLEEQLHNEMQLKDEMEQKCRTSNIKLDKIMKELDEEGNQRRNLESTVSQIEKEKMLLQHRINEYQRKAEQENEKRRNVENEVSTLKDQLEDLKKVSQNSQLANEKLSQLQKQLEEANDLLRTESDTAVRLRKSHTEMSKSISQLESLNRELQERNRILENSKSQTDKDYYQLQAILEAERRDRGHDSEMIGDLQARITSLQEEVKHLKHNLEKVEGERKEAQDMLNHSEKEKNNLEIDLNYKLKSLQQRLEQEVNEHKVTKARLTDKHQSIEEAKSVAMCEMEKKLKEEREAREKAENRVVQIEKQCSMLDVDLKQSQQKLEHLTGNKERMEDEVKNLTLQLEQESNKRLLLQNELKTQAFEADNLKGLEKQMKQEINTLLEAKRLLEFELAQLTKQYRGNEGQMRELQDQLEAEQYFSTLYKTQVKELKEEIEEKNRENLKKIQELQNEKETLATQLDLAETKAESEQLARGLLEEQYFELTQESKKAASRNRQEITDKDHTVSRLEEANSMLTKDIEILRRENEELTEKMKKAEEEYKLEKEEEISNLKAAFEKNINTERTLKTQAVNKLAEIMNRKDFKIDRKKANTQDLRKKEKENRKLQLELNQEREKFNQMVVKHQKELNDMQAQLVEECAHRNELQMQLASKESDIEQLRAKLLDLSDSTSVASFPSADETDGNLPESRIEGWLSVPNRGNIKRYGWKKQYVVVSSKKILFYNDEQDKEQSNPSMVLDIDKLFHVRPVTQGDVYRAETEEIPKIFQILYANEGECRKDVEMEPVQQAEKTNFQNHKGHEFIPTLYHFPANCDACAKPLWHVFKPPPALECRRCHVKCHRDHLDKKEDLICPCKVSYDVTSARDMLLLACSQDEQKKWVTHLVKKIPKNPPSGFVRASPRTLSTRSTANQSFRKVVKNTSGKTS

SMILES | IC50
Cn1c(C(=O)N2CC(F)(F)C2)cc2ccc(-c3ncc(C(F)(F)F)c(Nc4ccc(-c5cn[nH]c5)cc4)n3)cc21 [TDI01681, (6-(4-((4-(1H-pyrazol-4-yl)phenyl)amino)-5-(trifluoromethyl)pyrimidin-2-yl)-1-methyl-1H-indol-2-yl)(3,3-difluoroazetidin-1-yl)methanone] | > 10000 nM
Cn1c(C(=O)N2C[C@@H](F)[C@H](Br)C2)cc2ccc(-c3nccc(Nc4ccc(-c5cn[nH]c5)cc4)n3)cc21 [TDI01519, (6-(4-((4-(1H-py razol-4-yl)phenyl)amino)pyrimidin-2-yl)-1-methyl-1H-indol-2-yl)((3R,4R)-3-bromo-4-fluoropyrrolidin-1-yl)methanone] | 5240 nM
CC(C)NC(=O)c1cc2ccc(-c3nc(Nc4ccc5[nH]ncc5c4)c4occc4n3)cc2s1 [TDI01135, 6-(4-((1H-indazol-5-yl)amino)furo[3,2-d]pyrimidin-2-yl)-N-isopropylben-zo[b]thiophene-2-carboxamide] | 3000 nM
O=C(Nc1cn[nH]c1)c1cc2ccc(-c3nccc(Nc4ccc5[nH]ncc5c4)n3)cc2[nH]1 [TDI01199, 6-(4-((1H-indazol-5-yl)amino)-pyrimidin-2-yl)-N-(1H-pyrazol-4-yl)-1H-indole-2-carboxamide] | 1100 nM
CC(CO)NC(=O)c1cc2ccc(-c3nccc(Nc4ccc5[nH]ncc5c4)n3)cc2[nH]1 (stereo not shown) [TDI01176, 6-(4-((1H-indazol-5-yl)amino)-pyrimidin-2-yl)-N-(1-hydroxypropan-2-yl)-1H-indole-2-carboxamide] | 521 nM
O=C(Nc1ccncn1)c1cc2ccc(-c3nccc(Nc4ccc5[nH]ncc5c4)n3)cc2[nH]1 [TDI01161, 6-(4-((1H-indazol-5-yl)amino)-pyrimidin-2-yl)-N-(pyrimidin-4-yl)-1H-indole-2-carboxamide] | > 10000 nM
CC(C)NC(=O)c1cc2ccc(-c3nc(Nc4ccc5[nH]ncc5c4)c4sccc4n3)cc2s1 [TDI01136, 6-(4-((1H-indazol-5-yl)amino)thieno[3,2-d]pyrimidin-2-yl)-N-isopropylben-zo[b]thiophene-2-carboxamide] | 827 nM
Cn1c(C(=O)N2CC(F)(F)C2)cc2ccc(-c3ncc(F)c(Nc4ccc(-c5cn[nH]c5)cc4)n3)cc21 [TDI01932] | > 10000 nM

The remaining lines, values ahead:

IC50 | SMILES
> 10000 nM | O=C(c1cc2ccc(-c3nccc(Nc4ccc(-c5cn[nH]c5)cc4)n3)cc2[nH]1)N1CC[C@H](O)C1 [TDI01438, (S)-(6-(4-((4-(1H-pyrazol-4-yl)phenyl)amino)pyrimidin-2-yl)-1H-indol-2-yl)(3-hydroxypyrrolidin-1-yl)methanone]
1220 nM | O=C(c1cc2ccc(-c3nccc(Nc4ccc(-c5cn[nH]c5)cc4)n3)cc2[nH]1)N1CC(C(F)F)C1 [TDI01435, (6-(4-((4-(1H-pyrazol-4-yl)phenyl)amino)pyrimidin-2-yl)-1H-indol-2-yl)(3-(difluoromethyl)azetidin-1-yl)methanone]
> 10000 nM | O=C(Nc1ccncc1I)c1cc2ccc(-c3nccc(Nc4ccc(-c5cn[nH]c5)cc4)n3)cc2[nH]1 [TDI01829C, 6-(4-((4-(1H-pyrazol-4-yl)phenyl)-amino)-pyrimidin-2-yl)-N-(3-iodopyridin-4-yl)-1H-indole-2-carboxamide]
2870 nM | CNC(=O)c1cc2ccc(-c3nccc(Nc4ccc(-c5cn[nH]c5)cc4)n3)cc2[nH]1 [TDI01296, 6-(4-((4-(1H-pyrazol-4-yl)phenyl)-amino)-pyrimidin-2-yl)-N-methyl-1H-indole-2-carboxamide]
2040 nM | C[C@@H](CN)NC(=O)c1cc2ccc(-c3nccc(Nc4ccc(-c5cn[nH]c5)cc4)n3)cc2[nH]1 [TDI01856, (S)-6-(4-((4-(1H-pyrazol-4-yl)phenyl)-amino)-pyrimidin-2-yl)-N-(1-aminopropan-2-yl)-1H-indole-2-carboxamide]
> 10000 nM | O=C(Nc1ccncc1)c1cc2ccc(-c3nccc(Nc4ccc(-c5cn[nH]c5)cc4)n3)cc2s1 [TDI01393]
> 10000 nM | CN(CC(F)(F)F)C(=O)c1cc2ccc(-c3nccc(Nc4ccc(-c5cn[nH]c5)cc4)n3)cc2[nH]1 [TDI01355, 6-(4-((4-(1H-pyrazol-4-yl)phenyl)-amino)-pyrimidin-2-yl)-N-methyl-N-(2,2,2-trifluoroethyl)-1H-indole-2-carboxamide]
> 10000 nM | N#Cc1cnccc1NC(=O)c1cc2ccc(-c3nccc(Nc4ccc(-c5cn[nH]c5)cc4)n3)cc2[nH]1 [TDI01829B, 6-(4-((4-(1H-pyrazol-4-yl)phenyl)amino)pyrimidin-2-yl)-N-(3-cyanopyridin-4-yl)-1H-indole-2-carboxamide]
